Measurements as given in patent publication US8273754B2, “Substituted 1H-pyrazolo[3,4-D]pyrimidine-6-amine compounds” (ArQule, Inc., priority 2008, dated 2012).
Where two headings read alike, the source gives them in different places.

System: cancer cells
Assay: MTS cell growth inhibition assay (72 hours)
Format: cell-based
Procedure, shortened: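 Growth inhibition read as formazan absorbance at 492 nm after 4 h MTS/PMS, following 72 h compound exposure at 37 °C in 1% FBS DMEM (cells pre-seeded 18 h). IC50 = 50% absorbance reduction; inhibition graded in bands.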

[1] = Homo sapiens, DLD-1, 72 h, DLD-1 cells, read-out: DLD-1 MTS 72 hr at 10 μM
[2] = Homo sapiens, KATO III, 72 h, KATO III cells, read-out: KATO III MTS 72 hr at 10 μM
[3] = Homo sapiens, MDA-MB-231, 72 h, MDA-MB-231 cells, read-out: MDA-MB-231 MTS 72 hr at 10 μM
[4] = Homo sapiens, NCI-H1299, 72 h, NCI-H1299 cells, read-out: NCI-H1299 MTS 72 hr at 10 μM
[5] = PaCa-2, 72 h, PACA-2 cells, read-out: PACA-2 MTS 72 hr at 10 μM

SMILES | inhibition at 10 µM [1] [%] | inhibition at 10 µM [2] [%] | inhibition at 10 µM [3] [%] | inhibition at 10 µM [4] [%] | inhibition at 10 µM [5] [%]
Nc1nc(NC2Cc3ccccc3N(C(=O)Nc3ccccc3Cl)C2)c2cn[nH]c2n1 (stereo not drawn) [Compound 118, 3-(6-amino-1H-pyrazolo[3,4-d]pyrimidin-4-ylamino)-N-(2-chlorophenyl)-3,4-dihydroquinoline-1(2H)-carboxamide] | < 50 | < 50 | < 50 | < 50 | < 50
CCc1ccc(S(=O)(=O)N2CC(Nc3nc(N)nc4[nH]ncc34)Cc3ccccc32)cc1 (stereo not drawn) [Compound 59, N4-(1-(4-ethylphenylsulfonyl)-1,2,3,4-tetrahydroquinolin-3-yl)-1H-pyrazolo[3,4-d]pyrimidine-4,6-diamine] | < 50 | < 50 | < 50 | < 50 | < 50
Nc1nc(NC2Cc3ccccc3N(S(=O)(=O)c3cccc(NC(=O)Nc4c(F)cccc4C(F)(F)F)c3)C2)c2cn[nH]c2n1 (stereo not drawn) [Compound 204, 1-[3-({3-[(6-amino-1H-pyrazolo[3,4-d]pyrimidin-4-yl)amino]-3,4-dihydroquinolin-1(2H)-yl}sulfonyl)phenyl]-3-[2-fluoro-6-(trifluoromethyl)phenyl]urea] | < 50 | < 50 | < 50 | < 50 | 50 to 79
Cc1ccc(CNC(=O)N2CC(Nc3nc(N)nc4[nH]ncc34)Cc3ccccc32)cc1 (stereo not drawn) [Compound 110, 3-(6-amino-1H-pyrazolo[3,4-d]pyrimidin-4-ylamino)-N-(4-methylbenzyl)-3,4-dihydroquinoline-1(2H)-carboxamide] | < 50 | < 50 | < 50 | < 50 | < 50
COc1ccc(-c2cccc(S(=O)(=O)N3CC(Nc4nc(N)nc5[nH]ncc45)Cc4ccccc43)c2)cc1 (stereo not drawn) [Compound 63, N4-(1-(4′-methoxybiphenyl-3-ylsulfonyl)-1,2,3,4-tetrahydroquinolin-3-yl)-1H-pyrazolo[3,4-d]pyrimidine-4,6-diamine] | 50 to 79 | > 79 | < 50 | 50 to 79 | 50 to 79
COc1ccc(Br)cc1CN1CC(Nc2nc(N)nc3[nH]ncc23)Cc2ccccc21 (stereo not drawn) [Compound 144, N4-[1-(5-bromo-2-methoxybenzyl)-1,2,3,4-tetrahydroquinolin-3-yl]-1H-pyrazolo[3,4-d]pyrimidine-4,6-diamine] | > 79 | > 79 | > 79 | > 79 | > 79
CCCCCCc1ccc(C(=O)N2CC(Nc3nc(N)nc4[nH]ncc34)Cc3ccccc32)cc1 (stereo not drawn) [Compound 88, (3-(6-amino-1H-pyrazolo[3,4-d]pyrimidin-4-ylamino)-3,4-dihydroquinolin-1(2H)-yl)(4-hexylphenyl)methanone] | 50 to 79 | < 50 | < 50 | < 50 | < 50
Nc1nc(NC2Cc3ccccc3N(C(=O)c3c(F)cc(F)cc3F)C2)c2cn[nH]c2n1 (stereo not drawn) [Compound 89, (3-(6-amino-1H-pyrazolo[3,4-d]pyrimidin-4-ylamino)-3,4-dihydroquinolin-1(2H)-yl)(2,4,6-trifluorophenyl)methanone] | < 50 | < 50 | < 50 | < 50 | < 50
Nc1nc(NC2Cc3ccccc3N(C(=O)Nc3ccc(F)c(F)c3F)C2)c2cn[nH]c2n1 (stereo not drawn) [Compound 120, 3-(6-amino-1H-pyrazolo[3,4-d]pyrimidin-4-ylamino)-N-(2,3,4-trifluorophenyl)-3,4-dihydroquinoline-1(2H)-carboxamide] | > 79 | > 79 | 50 to 79 | < 50 | > 79
Cc1ccccc1-n1ncc(CN2CC(Nc3nc(N)nc4[nH]ncc34)Cc3ccccc32)c1C (stereo not drawn) [Compound 161, N4-(1-{[5-methyl-1-(2-methylphenyl)-1H-pyrazol-4-yl]methyl}-1,2,3,4-tetrahydroquinolin-3-yl)-1H-pyrazolo[3,4-d]pyrimidine-4,6-diamine] | < 50 | < 50 | < 50 | < 50 | < 50
Nc1nc(NC2Cc3ccccc3N(C(=O)C3CC3)C2)c2cn[nH]c2n1 (stereo not drawn) [Compound 80, (3-(6-amino-1H-pyrazolo[3,4-d]pyrimidin-4-ylamino)-3,4-dihydroquinolin-1(2H)-yl)(cyclopropyl)methanone] | < 50 | < 50 | < 50 | < 50 | < 50
COc1ccc(-n2ncc(CN3CC(Nc4nc(N)nc5[nH]ncc45)Cc4ccccc43)c2C)cc1 (stereo not drawn) [Compound 157, N4-(1-{[1-(4-methoxyphenyl)-5-methyl-1H-pyrazol-4-yl]methyl}-1,2,3,4-tetrahydroquinolin-3-yl)-1H-pyrazolo[3,4-d]pyrimidine-4,6-diamine] | < 50 | 50 to 79 | < 50 | < 50 | < 50
Nc1nc(NC2Cc3ccccc3N(S(=O)(=O)c3ccc(F)c(F)c3)C2)c2cn[nH]c2n1 (stereo not drawn) [Compound 46, N4-(1-(3,4-difluorophenylsulfonyl)-1,2,3,4-tetrahydroquinolin-3-yl)-1H-pyrazolo[3,4-d]pyrimidine-4,6-diamine] | < 50 | < 50 | < 50 | < 50 | < 50
Nc1nc(NC2Cc3ccccc3N(S(=O)(=O)c3ccc(NC(=O)Nc4ccc5ccccc5c4)cc3)C2)c2cn[nH]c2n1 (stereo not drawn) [Compound 189, 1-[4-({3-[(6-amino-1H-pyrazolo[3,4-d]pyrimidin-4-yl)amino]-3,4-dihydroquinolin-1(2H)-yl}sulfonyl)phenyl]-3-(2-naphthyl)urea] | > 79 | > 79 | > 79 | > 79 | > 79
CCOC(=O)c1ccc(NC(=O)N2CC(Nc3nc(N)nc4[nH]ncc34)Cc3ccccc32)cc1 (stereo not drawn) [Compound 114, ethyl 4-(3-(6-amino-1H-pyrazolo[3,4-d]pyrimidin-4-ylamino)-1,2,3,4-tetrahydroquinoline-1-carboxamido)benzoate] | > 79 | < 50 | < 50 | < 50 | < 50
Nc1nc(NC2Cc3ccccc3N(C(=O)NCc3ccc(F)cc3)C2)c2cn[nH]c2n1 (stereo not drawn) [Compound 115, 3-(6-amino-1H-pyrazolo[3,4-d]pyrimidin-4-ylamino)-N-(4-fluorobenzyl)-3,4-dihydroquinoline-1(2H)-carboxamide] | < 50 | < 50 | < 50 | < 50 | < 50
COc1cccc(CC(=O)N2CC(Nc3nc(N)nc4[nH]ncc34)Cc3ccccc32)c1 (stereo not drawn) [Compound 101, 1-(3-(6-amino-1H-pyrazolo[3,4-d]pyrimidin-4-ylamino)-3,4-dihydroquinolin-1(2H)-yl)-2-(3-methoxyphenyl)ethanone] | > 79 | < 50 | 50 to 79 | < 50 | < 50
Nc1nc(NC2Cc3ccccc3N(S(=O)(=O)c3ccc(NC(=O)Nc4ccc(C(F)(F)F)cc4)cc3)C2)c2cn[nH]c2n1 (stereo not drawn) [Compound 188, 1-[4-({3-[(6-amino-1H-pyrazolo[3,4-d]pyrimidin-4-yl)amino]-3,4-dihydroquinolin-1(2H)-yl}sulfonyl)phenyl]-3-[4-(trifluoromethyl)phenyl]urea] | > 79 | > 79 | > 79 | > 79 | > 79
Nc1nc(NC2Cc3ccccc3N(S(=O)(=O)c3ccc(OC(F)(F)F)cc3)C2)c2cn[nH]c2n1 (stereo not drawn) [Compound 68, N4-(1-(4-(trifluoromethoxy)phenylsulfonyl)-1,2,3,4-tetrahydroquinolin-3-yl)-1H-pyrazolo[3,4-d]pyrimidine-4,6-diamine] | < 50 | < 50 | < 50 | < 50 | < 50
Nc1nc(NC2Cc3ccccc3N(C(=O)Cc3ccccc3)C2)c2cn[nH]c2n1 (stereo not drawn) [Compound 87, 1-(3-(6-amino-1H-pyrazolo[3,4-d]pyrimidin-4-ylamino)-3,4-dihydroquinolin-1(2H)-yl)-2-phenylethanone] | < 50 | < 50 | < 50 | < 50 | < 50
Nc1nc(NC2Cc3ccccc3N(S(=O)(=O)c3cccc(NC(=O)Nc4cc(F)cc(C(F)(F)F)c4)c3)C2)c2cn[nH]c2n1 (stereo not drawn) [Compound 217, 1-[3-({3-[(6-amino-1H-pyrazolo[3,4-d]pyrimidin-4-yl)amino]-3,4-dihydroquinolin-1(2H)-yl}sulfonyl)phenyl]-3-[3-fluoro-5-(trifluoromethyl)phenyl]urea] | > 79 | > 79 | > 79 | > 79 | > 79
